Experimental data reported in patent publication US6716827B1, “Complexes for immobilizing isothiocyanate natural precursors in cyclodextrins, preparation and use” (Commissariat a l'Energie Atomique, priority 1998, dated 2004).

Assays:
[1] = Solubility in water of benzyl isothiocyanate; format: physicochemical; details: free compound, oily liquid
[2] = Solubility in aqueous solution of benzyl isothiocyanate formed by myrosinase in the α-cyclodextrin complex, followed by NMR; format: physicochemical; details: complexed in α-cyclodextrin; formed by action of myrosinase on the glucosinolate complex; 50 mM deuterated phosphate buffer pH 6, 25° C.
Method: In this example, the inclusion complex formed in example 1 is converted into an inclusion complex of benzyl isothiocyanate in the cyclodextrin.
For this purpose, myrosinase is added to the solution of the complex prepared in example 1, then hydrolysis of the glucosinolate is followed under nuclear magnetic resonance.
The results are given in FIGS. 4, 5 and 6 which illustrate the NMR spectra obtained at 25° C. and 500 MHz, before the addition of myrosinase (FIG. 4), 1 hour after the addition of myrosinase (FIG. 5), and 17 hours after the addition of myrosinase (FIG. 6).

S=C=NCc1ccccc1 [benzyl isothiocyanate]
solubility in water [1]: insoluble in water | solubility in an aqueous solution [2]: soluble
